Test results from US20220265759A1, “COMPOSITION AND METHOD FOR PROMOTING WOUND HEALING” (THE BOARD OF TRUSTEES OF THE UNIVERSITY OF ILLIOIS, priority 2019, published 2022).
Entries after “also recorded” stand apart in the source; their conditions may differ. Peptide text beside a SMILES is read from it. * marks the point of attachment. Myristoyl = CCCCCCCCCCCCCC(=O)*

Columns and labels:
[1] = molecular target: T1, CCR10-eNOS interaction (Mus musculus, UniProt Q9JL21); assay: Co-IP of CCR10-eNOS interaction in WT mouse wounds; format: in vivo, WT C57BL/6 mice; conditions: day 7, 50 μM
T1 construct: cells or mouse wounds were collected after treatment, and lysed in 2% ODG in Tris buffer; tissue Jackson Laboratory; host or cells: dorsal skin wounds of WT C57BL/6 or db/db mice
T1 sequence (Q9JL21 1-362): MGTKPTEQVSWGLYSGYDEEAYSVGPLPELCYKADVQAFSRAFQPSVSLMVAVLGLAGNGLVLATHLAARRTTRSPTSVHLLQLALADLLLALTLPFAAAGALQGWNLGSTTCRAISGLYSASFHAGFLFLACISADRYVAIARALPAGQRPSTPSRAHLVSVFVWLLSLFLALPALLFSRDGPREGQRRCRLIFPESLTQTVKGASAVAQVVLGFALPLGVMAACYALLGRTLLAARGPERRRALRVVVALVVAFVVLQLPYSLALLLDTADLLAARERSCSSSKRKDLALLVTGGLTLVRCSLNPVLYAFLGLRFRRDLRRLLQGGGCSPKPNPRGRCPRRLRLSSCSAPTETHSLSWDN
Description: (§1) Co-IP Experiments, cells or mouse wounds were collected after treatment, and lysed in 2% ODG in Tris buffer. The homogenates were further prepared for Co-IP experiments as described in the art (Chen, et al. (2018) Mol. Biol. Cell 29(10):1190-1202; Chen, et al. (2020) FASEB J. 34(4):5838-5850; Chen, et al. (2015) Ann. Rheum. Dis. 74:1898-1906).

[2] = tested on: full thickness excisional wounds on mouse dorsal skin; assay: Excisional dermal wound healing in WT C57BL/6 mice; format: in vivo; conditions: for reduction of wound size: compared to control peptide
Method: (§2) Mouse Healing Models. All animal procedures were performed in accordance with the Guide for the Care and Use of Laboratory Animals (National Institutes of Health). WT C57BL/6, eNOS^−/− and db/db mice were purchased from Jackson Laboratory (Bar Harbor, Me.). CCR10^−/− mice have been described in the art, see, e.g., Jin, et al. (2011) J. Immunol. 185(10):5723-31. Four 5-mm or two 8-mm full thickness excisional wounds were made on the dorsal skin of mice (male, aged at 9 weeks) using a standard skin biopsy punch under ketamine (100 mg/kg) and xylazine (5 mg/kg) anesthesia. Scrambled myristoylated (Myr−) control or Myr-CBD7 peptides were applied topically to wounds in F-127 gel sold under the tradename PLURONIC® after wounding (Mirza, et al. (2009) Am. J. Pathol. 175:2454-2462). Wound size was determined as previously described (Chen, et al. (2020) FASEB J. 34(4):5838-5850; Zhao, et al. (2016) PLoS ONE. 11:e0146451) and wounds were collected at indicated times for indicated measurements.
Hematoxylin and Eosin (H&E) Staining. H&E staining was performed as described previously (Chignalia, et al. (2015) Am. J. Pathol. 185:1251-1263). Slides with 5 μm tissue sections were baked at 60° C. for 30 minutes and stained with an Autostainer XL (Leica Microsystems, Wetzlar, Germany) using preset protocol. Briefly, slides were deparaffinized in three changes of xylene, rehydrated in 100% and 95% ethanol, […] followed by a brief immersion in High-Def and Bluing to obtain crisp nuclear details. Slides were then incubated in eosin for 2 minutes, dehydrated and mounted with Micromount media (Leica Biosystems). Whole slide images were obtained using Aperio AT2 brightfield scanner (Leica Microsystems, Wetzlar, Germany).
CCL28 (also called mucosa-associated epithelial chemokine) is a CC chemokine that signals via CCR10 as well as CCR3 (Pan, et al. (2000) J. Immunol. 165:2943). CCR10 has been reported to have two functional ligands, CCL27 and CCL28 that are involved in the epithelial immunity (Xiang, et al. (2012) Protein Cell 3:571-580). It was observed that CCL28 and CCR10 levels were highly expressed compared to CCL27 and CCR3 in skin of WT C57BL/6 mice. […] Therefore, it was subsequently investigated whether blockade of CCR10-eNOS interaction with Myr-CBD7 peptide has an effect on wound healing in WT C57BL/6 mice. Four 5 mm diameter full thickness excisional wounds were made on the mouse dorsal skin and 30 μl Myr-CBD7 peptide (50 μM) was topically administrated onto the wounds immediately after creating the punch wound.

[3] = molecular target: T1, CCR10-eNOS interaction; assay: Co-IP of CCR10-eNOS interaction in db/db mouse wounds; format: in vivo, db/db mice; conditions: day 12, vs Ctl-P
Method: as §1
(§3) Two 8 mm full thickness excisional wounds were made on the dorsal skin of diabetic db/db mice and then 50 μl of 50 μM Myr-CBD7 peptide was topically applied. […] Reduced CCR10-eNOS interaction was also observed in the mouse wounds following treatment with Myr-CBD7 peptide as determined by Co-IP (FIG. 6).

[4] = tested on: eNOS; assay: eNOS protein level in WT mouse wounds; format: in vivo, WT C57BL/6 mice; conditions: day 7, compared to control peptide
[5] = tested on: CD31, CCR10, CCL28, IL-6, IL-4, HGF mRNA; assay: Real-time RT-PCR of mRNA levels in WT mouse dermal wounds; format: in vivo, WT C57BL/6 mice
Method: Real-Time RT-PCR. Total cellular RNA from mouse skin wounds was extracted using nucleic acid extraction reagent sold under the tradename TRIZOL®. mRNA expression of different genes was examined by real-time RT-PCR that employed a SYBR Green PCR mix. Relative gene expression was determined by the ΔΔCt method based on GAPDH levels as described previously (Chen, et al. (2013) J. Immunol. 190:5256-5266).

[6] = tested on: full thickness excisional wounds on db/db mouse dorsal skin; assay: Excisional dorsal skin wound healing in diabetic db/db mice; format: in vivo
Method: as §2, §3

With `CCCCCCCCCCCCCC(=O)N[C@@H](CCCCN)C(=O)N[C@H](C(=O)N[C@@H](CO)C(=O)N[C@@H](C)C(=O)N[C@@H](CO)C(=O)N[C@@H](CC(C)C)C(=O)N[C@@H](CCSC)C(=O)O)[C@@H](C)CC` [Myr-CBD7, myr-KISASLM] (Myristoyl-KISASLM-OH) the “CCR10-eNOS interaction in wounds (Co-IP)” value [1] was “reduced”, the “reduction of wound size” value ([2]; day 5, 30 μl of 50 μM topical) was 20% and the “wound size (FIG. 1)” value ([2]; day 5 and 7, 30 μl (50 μM) per wound, vs Myr-control construct, P<0.05) was “reduced wound size significantly”. The “reduction of wound size” value ([2]; day 7, 30 μl of 50 μM topical) was 35%, the “re-epithelization of the skin wound (H&E stained sections)” value ([2]; day 7, vs control construct) was “associated with re-epithelization of the skin wound” and the wound healing time ([2]; topical administration on dermal wounds) was “decreased”. For the same compound, the “CCR10-eNOS interaction in wounds (Co-IP)” value [3] was “Reduced; also recorded: disrupted”, the “eNOS protein level in wounds” value [4] was “enhanced” and the “CCL28 mRNA level” value ([5]; wounds day 7) was “reduction”. The “CCR10 mRNA level” value ([5]; wounds day 7) was “did not change”, the “CD31 mRNA level” value ([5]; wounds day 7) was “elevated” and the “IL-4 mRNA level” value ([5]; wounds day 7) was “enhancing”. The “IL-6 mRNA level” value ([5]; wounds day 7) was “reduction”, the “increase of hepatocyte growth factor (HGF) mRNA level” value ([5]; wounds day 7, non-significant) was 35% and the “decrease of wound healing time” value ([6]; 50 μl of 50 μM topical, vs control peptide) was 4 days. The “reduction of wound size” value ([6]; day 4, compared to control peptide) was 19%, the “reduction of wound size” value ([6]; day 12, compared to control peptide) was 46% and the “wound size (FIG. 5)” value ([6]; from day 4, 30 μl (50 μM) topical, compared with control construct) was “reduces wound size significantly”.
